Data set [1] relates to SKOV-3 ovarian cancer xenograft. Kind of data set: In vivo therapeutic study (PTT/PDT with or without DOX). Set-up: species or system nude mice. To be noted: DOX 2.5 mg/kg, NP 25 mg/kg, light 0.25 W cm^−2 for 2 min; versus PBS control. On the procedure: Transgenic mice with mammary cancer (FVB/n Tg(MMTV-PyVmT) and nude mice bearing SKOV-3 ovarian cancer xenograft were used for the in vivo therapeutic studies. When tumor volumes reached 4-5 mm in transgenic mice, crosslinked NPs with and without 2.5 mg/kg DOX were injected via tail vein once per week for 3 doses. After 24 hrs, tumors were illuminated with a diode laser system (Applied Optronics, Newport, Conn.) at 690 nm under general anaesthesia. […] Tumor temperatures were recorded with an infrared camera (Flir). Intratumoral ROS production after irradiation was measured using 2′,7′-dichlorofluorescin diacetate (DCF) mixed with 100 μL of tissue lysates derived from tumors treated with NPs and PBS. In some cases, the blood of the mice was drawn and the ROS and heat production in blood after irradiation were measured at predetermined time points. The hemolysis was also followed. Tumor volume was measured twice a week and mice were sacrificed once tumor size reached 1000 mm^3. Tumors were harvested for histopathological evaluation 24 hours post-irradiation. The SKOV-3 ovarian cancer xenograft model was established by injecting one million cells subcutaneously at lower flank area. […] Tumor sizes and body weight were measured twice a week, while mice were monitored daily for potential signs of toxicity. […]

In data set [2] the test system is SKOV-3 ovarian cancer cells. Kind of data set: Cytotoxicity under dark conditions. The class given is cell-based, human. To be noted: up to 1.0 mg/mL, 2 hrs exposure plus 22 hrs. The text has this:
K9TCC-Pu-In and 5637 bladder cancer cell lines and SKOV-3 ovarian cancer cell lines were used to evaluate the photosensitizing function of nano-porphyrins. […] 5-aminolevulinic acid (5-ALA), the traditional photodynamic diagnosis/therapy agent, was used as a control. In another experiments, DOX loaded nanoporphyrins were used to treat the cancer cells followed by light exposure. […]

For `COc1cccc2c1C(=O)c1c(O)c3c(c(O)c1C2=O)C[C@@](O)(C(=O)CO)C[C@@H]3O[C@H]1C[C@H](N)[C@H](O)[C@H](C)O1` [free DOX, doxorubicin], the tumor growth result in data set [1] is on record as “slower tumor growth”.

Take pyropheophorbide-a [free Por]: in data set [2], the “cytotoxicity without light irradiation” value is on record as “significant cytoxicity”.

Values taken from patent US11219692B2, “Porphyrin modified telodendrimers” (THE REGENTS OF THE UNIVERSITY OF CALIFORNIA, priority 2012, dated 2022).
